From US20250197799A1, “CELLS DERIVED FROM POLYPEDILUM VANDERPLANKI AND ODOR SENSOR EQUIPPED THEREWITH” (University of Maryland, College Park, priority 2022, published 2025)

Legend:
Orco = molecular target: T1, Orco (Drosophila melanogaster, UniProt Q9VNB5); assay: Exogenous membrane protein function after drying-rehydration, Orco stable expression cell line; type: cell-based; settings: 1 hour after drying and rehydration
T1 construct: remnant residues; expressed in transfected cells; host or cells: Pv11 cells (Polypedilum vanderplanki), knock-in at the Pv.00443 locus downstream of the 121 promoter, single-cell sorting
T1 sequence (Q9VNB5 1-486): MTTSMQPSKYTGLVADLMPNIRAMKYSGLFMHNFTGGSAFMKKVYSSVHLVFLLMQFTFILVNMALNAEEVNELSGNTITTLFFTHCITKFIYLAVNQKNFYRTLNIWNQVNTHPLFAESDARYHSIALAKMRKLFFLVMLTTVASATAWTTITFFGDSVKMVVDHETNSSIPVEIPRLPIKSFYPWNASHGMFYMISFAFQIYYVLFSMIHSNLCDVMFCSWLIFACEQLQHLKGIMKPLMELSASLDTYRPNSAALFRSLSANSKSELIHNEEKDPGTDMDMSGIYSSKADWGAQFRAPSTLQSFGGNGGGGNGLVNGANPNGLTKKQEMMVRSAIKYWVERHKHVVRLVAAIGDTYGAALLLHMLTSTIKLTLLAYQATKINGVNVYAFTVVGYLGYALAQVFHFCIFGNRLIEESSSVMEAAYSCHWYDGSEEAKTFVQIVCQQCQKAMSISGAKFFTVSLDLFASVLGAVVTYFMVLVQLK
Procedure: To assess the drought tolerance of the cell lines, the cells were dried according to the following protocol. 4×10^7 Pv11-GCaMP6f stable expression cell lines were centrifuged at 700 g for 3 minutes and the supernatant removed. The precipitated cells were suspended in a 600 mM trehalose mix of 600 mM trehalose and IPL-41 medium at a ratio of 9:1, transferred to a 2 ml flask, and incubated at 25° C. for 48 hours. After 48 hours, the obtained cells were centrifuged at 700 g for 3 minutes and the supernatant was removed. The sedimented cells were suspended in 400 μl of 600 mM trebalose mix, and 40 μl were dropped onto a 35 mm dish. […]
6. […] Using the Orco stable expression cell line and Orco-Or47a stable expression cell line, in order to assess the function of exogenous membrane proteins before drying and after 1 hour of rehydration after drying, fluorescence intensity generated in response to stimulation with VUAA1 (Orco agonist) or pentyl acetate (ligand of Or47a) was measured in the same manner as in 3.2 above.
The fluorescence intensity was digitized from the photograph, and ΔF/F was calculated according to the following formula:
Where the summation Σi=1^n is over the n cells in the image, Fi,after means the fluorescence intensity of the cell i after adding the ligand solution, and Fi,0 means the fluorescence intensity of the cell i before adding the ligand solution. […]

Orco-Or47a = molecular target: T2, Orco-Or47a (Drosophila melanogaster, UniProt P81921+Q9VNB5); assay: Ligand assay using a perfusion system; type: cell-based; parameters: remnant residues; expressed in transfected cells; host or cells: Pv11 cells (Polypedilum vanderplanki), CRIS-PITCh knock-in at the Pv.00443 locus downstream of the 121 promoter, Zeocin selection and single-cell sorting; settings: 1 mM pentyl acetate perfused 5 minutes at 1 mL/min; BAM-fixed cells
T2 sequence (Q9VNB5 1-486): T1 sequence (Q9VNB5 1-486)
T2 sequence (P81921 1-385): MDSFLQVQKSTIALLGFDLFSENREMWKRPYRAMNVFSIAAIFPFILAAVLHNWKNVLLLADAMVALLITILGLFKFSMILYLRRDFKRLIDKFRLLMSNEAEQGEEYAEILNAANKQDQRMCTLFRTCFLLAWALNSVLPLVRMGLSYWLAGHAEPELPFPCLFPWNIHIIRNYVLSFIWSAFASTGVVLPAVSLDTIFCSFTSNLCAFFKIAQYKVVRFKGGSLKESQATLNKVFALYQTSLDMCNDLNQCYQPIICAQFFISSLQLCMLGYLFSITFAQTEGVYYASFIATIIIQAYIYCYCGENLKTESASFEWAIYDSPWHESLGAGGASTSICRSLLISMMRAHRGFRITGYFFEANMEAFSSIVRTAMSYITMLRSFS
Procedure: 9.1 Ligand assay. A ligand assay was performed using a perfusion system using Orco-Or47a stable expression cell line and GCaMP6f stable expression cell line. […] The Orco-Or47a stable expression cell line and the GCaMP6f stable expression cell line were fixed with BAM as described in 8.1 above and perfused at a flow rate of 1 mL/min using a peristaltic pump (SJ-1211 II-L2, ATTO). The perfusion solution was ACSF buffer (125 mM NaCl, 5.6 mM KCl, 1.25 mM Na2HPO4, 10 mM HEPES, 1.5 mM CaCl2), pH7.4) as a standard solution. As a ligand for Or47a, pentyl acetate was diluted to a final concentration of 1 mM, and as a negative control, DMSO was diluted to 1% by mass. The standard solution was perfused, switched to 1 mM pentyl acetate solution or 1% by mass DMSO solution, and perfusion was performed for 5 minutes. Photographing of the cells was started after waiting for the 1 mM pentyl acetate solution or 1% by mass DMSO solution to reach the cells in about 60 seconds. Bright-field and fluorescence images of the perfused Pv11 cells were taken 30 times at 10-second intervals (LSM700, ZEISS). The method for obtaining ΔF/F0 was as described above. 25 cells were selected from the captured image, each produced ΔF/F0, and the response was maintained for about 4 minutes; from this it was confirmed that the present disclosure can be applied as an odor sensor capable of rapid odor determination.

Compound | fluorescence on stimulation (Orco) | time the response was maintained (Orco-Or47a)
CCc1ccc(NC(=O)CSc2nnc(-c3cccnc3)n2CC)cc1 [VUAA1, N-(4-ethylphenyl)-2-{[4-ethyl-5-(pyridin-3-yl)-4H-1,2,4-triazol-3-yl]sulfanyl}acetamide] | fluorescence was observed | –
CCCCCOC(C)=O [pentyl acetate] | – | about 4 minutes
